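Method: 48-hour compound exposure of cells in 96-well plates, five concentrations, linear interpolation of endpoints. Definition used: TGI = concentration required for complete inhibition of growth.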
What was measured:
Assay in all cases: NCI tumour cell line growth inhibition, 48 h
A498 renal = tested on: A498 renal
HOP-92 NSCLC = tested on: HOP-92 NSCLC
EKVX NSCLC = tested on: EKVX NSCLC
IGROV1 ovarian = tested on: IGROV1 ovarian
HL-60(TB) leukemia = tested on: HL-60(TB) leukemia
NCI-H460 lung = tested on: NCI-H460 lung
SNB-19 CNS = tested on: SNB-19 CNS
HCT-15 colon = tested on: HCT-15 colon
LXFL 529 NSCLC = tested on: LXFL 529 NSCLC
MOLT-4 leukemia = tested on: MOLT-4 leukemia
SNB-75 CNS = tested on: SNB-75 CNS
HCT-116 colon = tested on: HCT-116 colon
SF-539 CNS = tested on: SF-539 CNS
SF-295 CNS = tested on: SF-295 CNS
ACHN renal = tested on: ACHN renal
U251 CNS = tested on: U251 CNS
RXF 393 renal = tested on: RXF 393 renal
NCI-H522 lung = tested on: NCI-H522 lung
NCI-H226 lung = tested on: NCI-H226 lung
KM20L2 colon = tested on: KM20L2 colon
DMS 114 small cell lung = tested on: DMS 114 small cell lung
HT29 colon = tested on: HT29 colon
HOP-62 NSCLC = tested on: HOP-62 NSCLC
LOX IMVI melanoma = tested on: LOX IMVI melanoma
SK-MEL-5 melanoma = tested on: SK-MEL-5 melanoma
A549 NSCLC = tested on: A549 NSCLC
SN12C renal = tested on: SN12C renal
786-0 renal = tested on: 786-0 renal
SK-MEL-28 melanoma = tested on: SK-MEL-28 melanoma
K-562 leukemia = tested on: K-562 leukemia
M19-MEL melanoma = tested on: M19-MEL melanoma
KM12 colon = tested on: KM12 colon
NCI-H23 lung = tested on: NCI-H23 lung
HOP-18 NSCLC = tested on: HOP-18 NSCLC
OVCAR-4 ovarian = tested on: OVCAR-4 ovarian
UACC-62 melanoma = tested on: UACC-62 melanoma
DLD-1 colon = tested on: DLD-1 colon
DMS 273 small cell lung = tested on: DMS 273 small cell lung
OVCAR-8 ovarian = tested on: OVCAR-8 ovarian
RPMI-8226 leukemia = tested on: RPMI-8226 leukemia
SF-268 CNS = tested on: SF-268 CNS
UACC-257 melanoma = tested on: UACC-257 melanoma
SNB-78 CNS = tested on: SNB-78 CNS
CCRF-CEM leukemia = tested on: CCRF-CEM leukemia
OVCAR-5 ovarian = tested on: OVCAR-5 ovarian
COLO 205 colon = tested on: COLO 205 colon
M14 melanoma = tested on: M14 melanoma
SW-620 colon = tested on: SW-620 colon
SR leukemia = tested on: SR leukemia
MALME-3M melanoma = tested on: MALME-3M melanoma
SK-OV-3 ovarian = tested on: SK-OV-3 ovarian
TK-10 renal = tested on: TK-10 renal
UO-31 renal = tested on: UO-31 renal
SK-MEL-2 melanoma = tested on: SK-MEL-2 melanoma
OVCAR-3 ovarian = tested on: OVCAR-3 ovarian
HCC-2998 colon = tested on: HCC-2998 colon
CAKI-1 renal = tested on: CAKI-1 renal

Cn1nc(-c2cccc(-c3nn(C)c(=NCCO)s3)n2)sc1=NCCO
TGI (A498 renal): > 100 µM
TGI (HOP-92 NSCLC): > 100 µM
TGI (EKVX NSCLC): > 100 µM
TGI (IGROV1 ovarian): > 100 µM
TGI (HL-60(TB) leukemia): > 100 µM
TGI (NCI-H460 lung): > 100 µM
TGI (SNB-19 CNS): > 100 µM
TGI (HCT-15 colon): > 100 µM
TGI (LXFL 529 NSCLC): > 100 µM
TGI (MOLT-4 leukemia): > 100 µM
TGI (SNB-75 CNS): > 100 µM
TGI (HCT-116 colon): > 100 µM
TGI (SF-539 CNS): > 100 µM
TGI (SF-295 CNS): > 100 µM
TGI (ACHN renal): > 100 µM
TGI (U251 CNS): > 100 µM
TGI (RXF 393 renal): > 100 µM
TGI (NCI-H522 lung): > 100 µM
TGI (NCI-H226 lung): > 100 µM
TGI (KM20L2 colon): > 100 µM
TGI (DMS 114 small cell lung): > 100 µM
TGI (HT29 colon): > 100 µM
TGI (HOP-62 NSCLC): > 100 µM
TGI (LOX IMVI melanoma): > 100 µM
TGI (SK-MEL-5 melanoma): > 100 µM
TGI (A549 NSCLC): > 100 µM
TGI (SN12C renal): > 100 µM
TGI (786-0 renal): > 100 µM
TGI (SK-MEL-28 melanoma): > 100 µM
TGI (K-562 leukemia): > 100 µM
TGI (M19-MEL melanoma): > 100 µM
TGI (KM12 colon): > 100 µM
TGI (NCI-H23 lung): > 100 µM
TGI (HOP-18 NSCLC): > 100 µM
TGI (OVCAR-4 ovarian): > 100 µM
TGI (UACC-62 melanoma): > 100 µM
TGI (DLD-1 colon): > 100 µM
TGI (DMS 273 small cell lung): > 100 µM
TGI (OVCAR-8 ovarian): > 100 µM
TGI (RPMI-8226 leukemia): > 100 µM
TGI (SF-268 CNS): > 100 µM
TGI (UACC-257 melanoma): > 100 µM
TGI (SNB-78 CNS): > 100 µM
TGI (CCRF-CEM leukemia): > 100 µM
TGI (OVCAR-5 ovarian): > 100 µM
TGI (COLO 205 colon): > 100 µM
TGI (M14 melanoma): > 100 µM
TGI (SW-620 colon): > 100 µM
TGI (SR leukemia): > 100 µM

CN(C)CC/C(=N\Nc1ccc(Cl)cc1)c1ccccc1
TGI (A498 renal): 10.8 µM
TGI (EKVX NSCLC): 4.35 µM
TGI (IGROV1 ovarian): 4.67 µM
TGI (HL-60(TB) leukemia): 2.17 µM
TGI (MALME-3M melanoma): 3.95 µM
TGI (SK-OV-3 ovarian): 7.04 µM
TGI (NCI-H460 lung): 2.45 µM
TGI (SNB-19 CNS): 6.91 µM
TGI (HCT-15 colon): 1.23 µM
TGI (LXFL 529 NSCLC): 0.373 µM
TGI (MOLT-4 leukemia): 10.2 µM
TGI (SNB-75 CNS): 6.45 µM
TGI (HCT-116 colon): 2.6 µM
TGI (SF-539 CNS): 3.65 µM
TGI (SF-295 CNS): 1.25 µM
TGI (ACHN renal): 2.59 µM
TGI (TK-10 renal): 2.32 µM
TGI (U251 CNS): 1.74 µM
TGI (RXF 393 renal): 10.3 µM
TGI (NCI-H522 lung): 3.78 µM
TGI (KM20L2 colon): 0.349 µM
TGI (DMS 114 small cell lung): 4.45 µM
TGI (HT29 colon): 3 µM
TGI (UO-31 renal): 0.986 µM
TGI (HOP-62 NSCLC): 3.62 µM
TGI (LOX IMVI melanoma): 0.691 µM
TGI (SK-MEL-5 melanoma): 3.27 µM
TGI (A549 NSCLC): 3.29 µM
TGI (SN12C renal): 4.13 µM
TGI (786-0 renal): 3.88 µM
TGI (SK-MEL-28 melanoma): 2.92 µM
TGI (SK-MEL-2 melanoma): 4.58 µM
TGI (K-562 leukemia): 1.03 µM
TGI (M19-MEL melanoma): 3.2 µM
TGI (KM12 colon): 2.93 µM
TGI (NCI-H23 lung): 3.93 µM
TGI (HOP-18 NSCLC): 7.78 µM
TGI (OVCAR-4 ovarian): 7.05 µM
TGI (UACC-62 melanoma): 2.07 µM
TGI (DLD-1 colon): 3.74 µM
TGI (DMS 273 small cell lung): 1.61 µM
TGI (OVCAR-3 ovarian): 3.15 µM
TGI (OVCAR-8 ovarian): 11.5 µM
TGI (RPMI-8226 leukemia): 3.13 µM
TGI (SF-268 CNS): 3.67 µM
TGI (UACC-257 melanoma): 3.35 µM
TGI (SNB-78 CNS): 5.13 µM
TGI (CCRF-CEM leukemia): 11.2 µM
TGI (OVCAR-5 ovarian): 2.66 µM
TGI (COLO 205 colon): 3.27 µM
TGI (M14 melanoma): 3.17 µM
TGI (SW-620 colon): 2.37 µM
TGI (SR leukemia): 4.4 µM

COC1/C(=C\c2ccccc2I)c2ccccc2N1C(C)=O (centres undefined)
TGI (A498 renal): 30.1 µM
TGI (HOP-92 NSCLC): 8.99 µM
TGI (EKVX NSCLC): 39.6 µM
TGI (IGROV1 ovarian): 39.6 µM
TGI (HL-60(TB) leukemia): 16.1 µM
TGI (NCI-H460 lung): 33.5 µM
TGI (SNB-19 CNS): 60.4 µM
TGI (HCT-15 colon): 37.4 µM
TGI (LXFL 529 NSCLC): 87.4 µM
TGI (MOLT-4 leukemia): 35.8 µM
TGI (SNB-75 CNS): 55 µM
TGI (HCT-116 colon): 26.8 µM
TGI (SF-539 CNS): 31.2 µM
TGI (SF-295 CNS): 29.2 µM
TGI (ACHN renal): > 100 µM
TGI (U251 CNS): 42.6 µM
TGI (RXF 393 renal): 22.3 µM
TGI (HCC-2998 colon): 33.9 µM
TGI (KM20L2 colon): 30 µM
TGI (DMS 114 small cell lung): 38.7 µM
TGI (HT29 colon): 37.1 µM
TGI (UO-31 renal): 9.91 µM
TGI (HOP-62 NSCLC): 32.7 µM
TGI (A549 NSCLC): 35.8 µM
TGI (SN12C renal): 28.8 µM
TGI (786-0 renal): 33.3 µM
TGI (SK-MEL-28 melanoma): 38.3 µM
TGI (SK-MEL-2 melanoma): 32.5 µM
TGI (K-562 leukemia): 53.3 µM
TGI (M19-MEL melanoma): 42.4 µM
TGI (KM12 colon): 29 µM
TGI (NCI-H23 lung): 36.5 µM
TGI (HOP-18 NSCLC): 38.1 µM
TGI (CAKI-1 renal): 50 µM
TGI (OVCAR-4 ovarian): 32.1 µM
TGI (UACC-62 melanoma): 26.7 µM
TGI (DLD-1 colon): 43.4 µM
TGI (DMS 273 small cell lung): 27.1 µM
TGI (OVCAR-3 ovarian): 31.2 µM
TGI (OVCAR-8 ovarian): > 100 µM
TGI (RPMI-8226 leukemia): 39.1 µM
TGI (UACC-257 melanoma): 44.1 µM
TGI (SNB-78 CNS): 82.5 µM
TGI (CCRF-CEM leukemia): 59.1 µM
TGI (COLO 205 colon): 31.5 µM
TGI (SW-620 colon): 39.2 µM
TGI (SR leukemia): 42.9 µM

Reference: PubChem BioAssay (NCI)
